The record followed here is ChEMBL document CHEMBL5052844, “Heteroaryl amides useful as kif18a inhibitors” (2020).

The experiment addresses T1, Kinesin-like protein KIF18A (Homo sapiens, UniProt Q8NI77).
T1 sequence (Q8NI77 whole entry): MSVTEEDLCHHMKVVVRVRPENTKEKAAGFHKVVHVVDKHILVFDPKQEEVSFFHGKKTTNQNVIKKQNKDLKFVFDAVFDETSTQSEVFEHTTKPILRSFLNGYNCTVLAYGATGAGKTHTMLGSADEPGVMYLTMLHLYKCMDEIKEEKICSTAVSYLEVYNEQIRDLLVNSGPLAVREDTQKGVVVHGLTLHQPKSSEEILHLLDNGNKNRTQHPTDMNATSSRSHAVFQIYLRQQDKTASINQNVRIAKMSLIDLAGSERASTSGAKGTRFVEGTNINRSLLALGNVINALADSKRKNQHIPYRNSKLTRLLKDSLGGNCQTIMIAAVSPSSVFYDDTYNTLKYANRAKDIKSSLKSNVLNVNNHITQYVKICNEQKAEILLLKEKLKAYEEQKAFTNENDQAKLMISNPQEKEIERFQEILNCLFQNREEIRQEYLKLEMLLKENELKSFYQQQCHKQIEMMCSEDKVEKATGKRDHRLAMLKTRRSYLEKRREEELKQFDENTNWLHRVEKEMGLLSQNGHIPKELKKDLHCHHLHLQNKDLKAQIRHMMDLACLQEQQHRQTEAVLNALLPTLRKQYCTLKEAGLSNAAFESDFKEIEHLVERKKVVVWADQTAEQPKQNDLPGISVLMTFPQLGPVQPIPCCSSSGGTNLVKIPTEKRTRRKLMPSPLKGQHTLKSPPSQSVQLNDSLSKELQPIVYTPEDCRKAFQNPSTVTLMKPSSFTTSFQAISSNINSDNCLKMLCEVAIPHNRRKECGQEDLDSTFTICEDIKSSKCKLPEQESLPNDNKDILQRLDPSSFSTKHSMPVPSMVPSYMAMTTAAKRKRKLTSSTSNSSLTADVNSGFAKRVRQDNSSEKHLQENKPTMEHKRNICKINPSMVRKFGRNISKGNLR
Briefly: Inhibition of recombinant His-tagged human KIF18A (1 to 467 residues) expressed in baculovirus expression system assessed as inhibition of microtubule-stimulated ATPase activity preincubated for 15 mins followed by ATP addition and further incubated for 15 mins and measured after 40 mins by ADP-Glo reagent based assay. For orientation: ADP-Glo first removes unused ATP, then detects ADP through luciferase.

In general, IC50 refers to the concentration that inhibits the measured activity by half. On to `Cc1cc(NC(=O)c2cnc(S(=O)(=O)C3CC3)cc2N2CCC3(CC2)CC3)nc(N2CCC(F)(F)CC2)n1`, for which the IC50 came out at 48 nM.
